According to patent US5100647A, “Method and formulations for the therapy of cystic fibrosis, Bartter's syndrome and secretory diarrheas, and for diuretic treatment” (The Trustees of the University of Pennsylvania, priority 1990, dated 1992):
Where a name gives a salt, the structure may show the parent alone. Read-outs that look alike come from different tables or passages of the source.

Tests used:
[1] = cited from earlier work
[2] = test system: potassium conductance of pancreatic beta cells; details: cited from earlier work
[3] = cited from earlier work; remark: listed apart in the source
potassium channel = details: requires millimolar concentrations; cited from earlier work
[4] = test system: chloride conductance of CF/T43 cells; test: whole-cell chloride current in CF/T43 cystic fibrosis airway epithelial cells; assay type: cell-based, human
Protocol: An aliquot of cells from a cell line, CF/T43, derived from airway epithelia from a patient with cystic fibrosis were used.
Data were obtained using internal and external solutions as described by McCann, Li and Welsh in studies of whole cell ICI in normal human airway epithelial cells so as to be able to compare our data with theirs. The internal solutions are cesium-based providing a minimal internal calcium concentration (nominally 0-10 nM, with EGTA) and the external solution is sodium-based with symmetrical CI concentrations of 140 mM. No cyclic nucleotides are included in the solutions and amiloride is added to block the sodium conductance.

sodium channels = sodium channels (Cavia porcellus, UniProt A0A286Y3I8); details: requires millimolar concentrations; cited from earlier work
chloride channel = test: whole-cell patch clamp of chloride channel current in isolated cells from a cultured kidney cell line
From the text: Using isolated cells from a cultured kidney cell line, we tested the effects of various doses of Sparteine applied to the interior and exterior of the cell on current through the chloride channel as measured with standard patch clamp electrophysiologic techniques.

For `C1CCN2C[C@@H]3C[C@@H](CN4CCCC[C@@H]34)[C@H]2C1` [Sparteine sulfate], the “water solubility and stability” value [1] is listed as “water soluble and stable”, the “potassium conductance of pancreatic beta cells” value [2] is listed as “decreases the potassium conductance” and the insulin secretion ([3]; healthy human beings) is listed as “enhance insulin secretion”. For the same compound, the glucagon secretion ([3]; insulin-dependent diabetics) was “increase glucagon secretion” and the insulin secretion ([3]; non-diabetic obese individuals, intravenous administration) was “significant increase in insulin secretion”.
In the case of `C1CCN2CC3CC(CN4CCCCC34)C2C1` (stereo not drawn) [Sparteine, dodecahydro-7,14-methano-2H,6H-di-pyrido[1,2-a:1',2'-e][1,5]diazocine], the “action on olfactory tract axons” value (potassium channel) is listed as “potassium channel blocker”, the current amplitude ([4]; external 0.1 nM, no cyclic nucleotides, minimal internal calcium, amiloride present) is listed as “marked increase in current amplitude” and the “reversal potential of the induced current” value ([4]; external 0.1 nM, symmetrical Cl 140 mM) is listed as 0 mV. The “induction of chloride current in cystic fibrosis cells” value ([4]; pM, absence of cytosolic Ca^2+ and cyclic nucleotides) was “induces a chloride current”, the “reversibility of the activated current” value ([4]; washout) was “reversible” and the “antiarrhythmic classification due to effects on sodium channels” value (sodium channels) was “Class 1 cardiac antiarrhythmic”. For the same compound, the “chloride current relative to the control value” (chloride channel; Sparteine 0.1, 50 and 500 μM) was 10-20 X, the “peak current through the chloride channel” value (chloride channel; Sparteine 0.1, 50 and 500 μM, cells dialyzed with ATP, no cAMP, 10 nM calcium, depolarized to +70 mV from holding potential -45 mV) was 80-200 μA/cm^2 and the “time course of the activated current with increasing dose” value (chloride channel; above 0.1 μM) was “increasingly rapid decline in the activated current”. The “effect of externally applied compound on chloride current” value (chloride channel; external, 0.1 to 10 nM) was “marked augmentation of the chloride current”, the “effect on the chloride channel at higher concentrations” value (chloride channel; higher (micromolar-millimolar) concentrations) was “potent inhibitor” and the “effect on the chloride channel at low concentrations” value (chloride channel; low (pico-nanomolar) concentrations) was “very potent activator”.
For calcium, the “maximum chloride current with known activator added to the internal solution” value (chloride channel; depolarized to +70 mV from -45 mV) was 40-50.
